Three compounds from ChEMBL document CHEMBL6074678, “Selectively Antagonizing the NOD1-Mediated Inflammatory Signaling Pathway Mitigates the Gastric Inflammation Induced by Helicobacter pylori Infection” (J Med Chem, 2024) can be followed below.

The target of series [1] is Nucleotide-binding oligomerization domain-containing protein 2 (Homo sapiens, UniProt Q9HC29). The experiment in a line: Inhibition of human NOD2 at 1 uM relative to control.
The target of series [2] is T1, Nucleotide-binding oligomerization domain-containing protein 2 (Mus musculus) (UniProt Q8K3Z0).
T1 sequence (whole entry): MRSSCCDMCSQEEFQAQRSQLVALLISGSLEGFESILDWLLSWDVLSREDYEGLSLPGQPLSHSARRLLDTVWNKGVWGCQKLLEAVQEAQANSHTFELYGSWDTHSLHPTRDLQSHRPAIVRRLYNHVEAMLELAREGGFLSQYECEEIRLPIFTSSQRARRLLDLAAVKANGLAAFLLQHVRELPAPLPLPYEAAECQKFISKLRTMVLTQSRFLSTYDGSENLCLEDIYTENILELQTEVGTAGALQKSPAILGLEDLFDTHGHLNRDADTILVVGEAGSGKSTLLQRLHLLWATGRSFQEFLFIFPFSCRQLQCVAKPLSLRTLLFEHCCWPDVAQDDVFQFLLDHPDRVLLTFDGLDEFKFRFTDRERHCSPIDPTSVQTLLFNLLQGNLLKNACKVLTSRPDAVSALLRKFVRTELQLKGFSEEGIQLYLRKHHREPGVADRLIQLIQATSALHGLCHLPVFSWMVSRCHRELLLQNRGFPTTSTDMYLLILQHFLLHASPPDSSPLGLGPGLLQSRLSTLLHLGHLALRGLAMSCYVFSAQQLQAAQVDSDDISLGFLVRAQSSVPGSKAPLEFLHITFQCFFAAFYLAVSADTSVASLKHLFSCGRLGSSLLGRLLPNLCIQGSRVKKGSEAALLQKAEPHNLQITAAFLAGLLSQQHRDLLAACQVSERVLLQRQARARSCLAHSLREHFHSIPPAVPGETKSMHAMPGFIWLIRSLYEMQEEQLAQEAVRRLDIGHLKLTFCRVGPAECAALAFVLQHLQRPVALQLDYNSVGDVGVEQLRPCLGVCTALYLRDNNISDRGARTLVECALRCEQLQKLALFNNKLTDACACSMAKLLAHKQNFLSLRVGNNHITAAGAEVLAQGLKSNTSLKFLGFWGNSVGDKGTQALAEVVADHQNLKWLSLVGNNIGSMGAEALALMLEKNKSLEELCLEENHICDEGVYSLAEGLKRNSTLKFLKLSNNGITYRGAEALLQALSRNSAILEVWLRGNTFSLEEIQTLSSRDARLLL
As to the kind of experiment: Inhibition of mouse NOD2 at 1 uM relative to control.

The nature of series [3]: Solubility of compound in phosphate buffer at pH 7.2 to 7.4. The format is physicochemical.
A short description of series [4]: Metabolic stability in mouse liver microsomes assessed as half life at 1.25 uM preincubated for 5 mins followed by NADPH addition measured upto 120 mins by LC-MS/MS analysis. The series is classed as ADME, Microsome. The note with it: time < 125 min. (In general: Microsomes from liver hold many membrane-bound enzymes, among them those of drug oxidation.)
Series [5] has as its target T2, Toll-like receptor 9 (Homo sapiens) (UniProt Q9NR96).
T2 sequence (whole entry): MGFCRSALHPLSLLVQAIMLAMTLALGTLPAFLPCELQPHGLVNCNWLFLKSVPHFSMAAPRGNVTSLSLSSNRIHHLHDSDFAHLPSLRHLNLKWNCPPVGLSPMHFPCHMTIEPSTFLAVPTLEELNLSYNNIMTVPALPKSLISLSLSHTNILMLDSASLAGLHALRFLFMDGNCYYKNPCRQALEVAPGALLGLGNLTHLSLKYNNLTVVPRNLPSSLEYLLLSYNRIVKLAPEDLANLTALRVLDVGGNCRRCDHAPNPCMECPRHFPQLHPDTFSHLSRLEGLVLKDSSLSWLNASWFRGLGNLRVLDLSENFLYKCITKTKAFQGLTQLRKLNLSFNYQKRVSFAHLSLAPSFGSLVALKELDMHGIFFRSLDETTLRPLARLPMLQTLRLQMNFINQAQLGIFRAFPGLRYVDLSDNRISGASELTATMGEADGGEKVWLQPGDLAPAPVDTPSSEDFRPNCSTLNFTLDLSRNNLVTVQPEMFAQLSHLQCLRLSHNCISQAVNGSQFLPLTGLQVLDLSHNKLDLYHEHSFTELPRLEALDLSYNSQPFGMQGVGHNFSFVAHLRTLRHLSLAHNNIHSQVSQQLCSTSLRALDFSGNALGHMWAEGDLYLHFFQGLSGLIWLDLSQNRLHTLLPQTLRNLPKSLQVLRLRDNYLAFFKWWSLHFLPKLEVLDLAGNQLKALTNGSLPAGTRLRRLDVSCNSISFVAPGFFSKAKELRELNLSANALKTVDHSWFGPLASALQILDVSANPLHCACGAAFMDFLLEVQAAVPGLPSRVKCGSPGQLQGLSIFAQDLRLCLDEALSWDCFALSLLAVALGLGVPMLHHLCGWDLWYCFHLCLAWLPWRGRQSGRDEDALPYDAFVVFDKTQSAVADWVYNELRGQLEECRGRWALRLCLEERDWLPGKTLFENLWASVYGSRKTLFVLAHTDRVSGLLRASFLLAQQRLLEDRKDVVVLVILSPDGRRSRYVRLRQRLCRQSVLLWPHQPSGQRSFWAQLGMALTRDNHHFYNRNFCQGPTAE
The experiment in a line: Inhibition of human TLR9 at 1 uM relative to control.

In brackets after ≈: the same amount, converted by molar mass.

Chain of Nucleotide-binding oligomerization domain-containing protein 2 (Q9HC29 whole entry, the tested form may be a part): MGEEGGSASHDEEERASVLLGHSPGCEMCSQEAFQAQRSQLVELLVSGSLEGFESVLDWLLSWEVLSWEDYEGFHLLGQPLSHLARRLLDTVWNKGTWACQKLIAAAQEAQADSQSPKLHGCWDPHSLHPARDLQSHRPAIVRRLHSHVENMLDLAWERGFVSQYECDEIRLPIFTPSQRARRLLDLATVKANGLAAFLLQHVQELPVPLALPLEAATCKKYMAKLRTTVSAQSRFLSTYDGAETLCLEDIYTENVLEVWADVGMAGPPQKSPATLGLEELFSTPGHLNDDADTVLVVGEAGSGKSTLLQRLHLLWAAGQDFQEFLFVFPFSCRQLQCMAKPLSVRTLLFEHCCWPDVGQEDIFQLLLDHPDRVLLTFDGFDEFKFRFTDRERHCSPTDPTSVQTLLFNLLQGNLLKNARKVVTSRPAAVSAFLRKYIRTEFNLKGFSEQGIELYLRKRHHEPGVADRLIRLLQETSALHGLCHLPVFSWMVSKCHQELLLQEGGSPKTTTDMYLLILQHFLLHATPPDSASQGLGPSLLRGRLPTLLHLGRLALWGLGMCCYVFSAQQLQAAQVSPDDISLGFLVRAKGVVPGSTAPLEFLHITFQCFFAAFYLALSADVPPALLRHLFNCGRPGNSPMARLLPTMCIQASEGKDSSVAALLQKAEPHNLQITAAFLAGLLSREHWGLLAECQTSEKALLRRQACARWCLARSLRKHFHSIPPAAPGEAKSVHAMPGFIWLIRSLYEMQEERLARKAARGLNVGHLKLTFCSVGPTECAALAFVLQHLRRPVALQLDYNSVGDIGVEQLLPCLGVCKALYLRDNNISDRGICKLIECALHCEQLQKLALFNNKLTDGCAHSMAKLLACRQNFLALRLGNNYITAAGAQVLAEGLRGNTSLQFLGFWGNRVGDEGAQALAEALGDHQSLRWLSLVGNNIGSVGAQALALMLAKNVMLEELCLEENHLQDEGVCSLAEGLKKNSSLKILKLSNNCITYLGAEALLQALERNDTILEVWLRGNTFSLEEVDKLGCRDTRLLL

One may read the inhibition as how much of the control response was suppressed. High values mean a strong effect, low ones a weak effect. A word on the solubility: it is the concentration that dissolves in the medium under given conditions. A high value points to a readily soluble substance. One may read the half-life as how long it takes for the measured level to halve. For the compound `N#Cc1ccc2nc(Cl)n(-c3ccc(Cl)c(NS(=O)(=O)c4c(F)cccc4F)c3)c(=O)c2c1`, the inhibition in series [1] is less than 10%; in series [2], 20.2%; in series [5], 37.6%. This compound also registered a solubility in series [3] of 0.0488 mg/mL (≈ 96.2 µM). The half-life at 1.25 µM in series [4] came out at 26.5 min.

As for `CS(=O)(=O)c1ccc2nc(Cl)n(-c3ccc(Cl)c(NS(=O)(=O)c4ccc5ncsc5c4)c3)c(=O)c2c1`, the inhibition is 16.1% in series [1], less than 10% in series [2] and 73.9% in series [5]. Also, the concentration in solution in series [3] (solubility) came to 0.0215 mg/mL (≈ 37 µM). In addition, in series [4], the half-life at 1.25 µM is 22.8 min.

On to `CS(=O)(=O)c1ccc2nc(Cl)n(-c3ccc(Cl)c(NS(=O)(=O)c4c(F)cccc4F)c3)c(=O)c2c1`, for which the inhibition in series [1] turned out to be 36.9%; in series [2] it was 21.9%; in series [5], 37.1%. In series [3], this compound came in with a solubility of 0.0446 mg/mL (≈ 79.6 µM). In addition, the half-life at 1.25 µM in series [4] worked out at 30.1 min.
